Consider seven compounds from patent US10004701B2, “Methods and compositions for treating infection” (UNIVERSITY OF ROCHESTER, priority 2012, dated 2018).

Counter-ions that a name gives are not always drawn. Like-named read-outs stand apart in the source and are kept apart here.

What all share (assay): AK assay 384-well format, Prestwick library screening
One assay relates to E. cloacae. It counts as cell-based, Enterobacter cloacae. The settings on record: 50 μM final drug concentration; for fold induction at 50 µM: Enterobacter cloacae, 3 h.
The next assay concerns K. pneumoniae. It counts as cell-based, Klebsiella pneumoniae. Particulars: 50 μM final drug concentration; for fold induction at 50 µM: Klebsiella pneumoniae, 3 h.
The next assay has as its system P. aeruginosa. It counts as cell-based, Pseudomonas aeruginosa. The settings on record: 50 μM final drug concentration; for fold induction at 50 µM: Pseudomonas aeruginosa, 3 h.
Assay [1] deals with A. baumannii strain 98-37-09. It counts as cell-based, Acinetobacter baumannii. The settings on record: 50 μM final drug concentration; for fold induction at 50 µM: Acinetobacter baumannii, 983709, 3 h.
The test system of a further assay is E. coli. The format is cell-based, Escherichia coli. The settings on record: 50 μM final drug concentration; for fold induction at 50 µM: Escherichia coli, 3 h.
Assay [2] deals with S. aureus strain USA300-0114. The format is cell-based, Staphylococcus aureus. The settings on record: 50 μM final drug concentration; for fold induction at 50 µM: Staphylococcus aureus, USA300, 3 h.
The next assay concerns E. faecium. It counts as cell-based, Enterococcus faecium. Particulars: 50 μM final drug concentration; for fold induction at 50 µM: Enterococcus faecium, 3 h.
Setting [3] is: planktonic, cutoff for positive 3-fold increase, read-out: AK-based Prestwick Library Screening Results, E. cloacae (fold increase in extracellular AK activity).
Where [4] appears, read: planktonic, cutoff for positive 3-fold increase, read-out: AK-based Prestwick Library Screening Results, K. pneumoniae (fold increase in extracellular AK activity).
Where [5] appears, read: planktonic, cutoff for positive 3-fold increase, read-out: AK-based Prestwick Library Screening Results, P. aeruginosa (fold increase in extracellular AK activity).
Setting [6] is: planktonic, cutoff for positive 3-fold increase, read-out: AK-based Prestwick Library Screening Results, A. baumannii (fold increase in extracellular AK activity).
Where [7] appears, read: planktonic, cutoff for positive 3-fold increase, read-out: AK-based Prestwick Library Screening Results, E. coli (fold increase in extracellular AK activity).
Where [8] appears, read: planktonic, cutoff for positive 3-fold increase, read-out: AK-based Prestwick Library Screening Results, S. aureus (fold increase in extracellular AK activity).
The mark [9] stands for this setting: planktonic, cutoff for positive 3-fold increase, read-out: AK-based Prestwick Library Screening Results, E. faecium (fold increase in extracellular AK activity).

In the case of `O=C(c1ccccc1)c1ccc2n1CCC2C(=O)O` (stereo not shown) [Ketorolac tromethamine], the fold induction at 50 µM was found to be 1.4 with E. cloacae (cutoff for positive-scoring molecules 3-fold increase, read-out: AK-based Prestwick Library Screening Results, E. cloacae (fold increase in extracellular AK activity)); 1 with K. pneumoniae (cutoff for positive-scoring molecules 3-fold increase, read-out: AK-based Prestwick Library Screening Results, K. pneumoniae (fold increase in extracellular AK activity)); 1 in the assay on P. aeruginosa (cutoff for positive-scoring molecules 3-fold increase, read-out: AK-based Prestwick Library Screening Results, P. aeruginosa (fold increase in extracellular AK activity)); 1 in assay [1] (cutoff for positive-scoring molecules 3-fold increase, read-out: AK-based Prestwick Library Screening Results, A. baumannii (fold increase in extracellular AK activity)); 1.3 in the assay on E. coli (cutoff for positive-scoring molecules 3-fold increase, read-out: AK-based Prestwick Library Screening Results, E. coli (fold increase in extracellular AK activity)); 1.1 in assay [2] (cutoff for positive-scoring molecules 3-fold increase, read-out: AK-based Prestwick Library Screening Results, S. aureus (fold increase in extracellular AK activity)). For the same compound, the fold induction at 50 µM with E. faecium (cutoff for positive-scoring molecules 3-fold increase, read-out: AK-based Prestwick Library Screening Results, E. faecium (fold increase in extracellular AK activity)) was determined as 1.

As for `CC(O)Cn1cnc2c1c(=O)n(C)c(=O)n2C` (stereo not shown) [Proxyphylline], the fold induction at 50 µM with E. cloacae (planktonic, cutoff for positive-scoring molecules 3-fold increase, read-out: AK-based Prestwick Library Screening Results, E. cloacae (fold increase in extracellular AK activity)) stood at 0.5; in the assay with K. pneumoniae (planktonic, cutoff for positive-scoring molecules 3-fold increase, read-out: AK-based Prestwick Library Screening Results, K. pneumoniae (fold increase in extracellular AK activity)) it was 0.5; in the assay on P. aeruginosa (planktonic, cutoff for positive-scoring molecules 3-fold increase, read-out: AK-based Prestwick Library Screening Results, P. aeruginosa (fold increase in extracellular AK activity)), 0.5; in assay [1] (planktonic, cutoff for positive-scoring molecules 3-fold increase, read-out: AK-based Prestwick Library Screening Results, A. baumannii (fold increase in extracellular AK activity)), 0.6; in the assay on E. coli (planktonic, cutoff for positive-scoring molecules 3-fold increase, read-out: AK-based Prestwick Library Screening Results, E. coli (fold increase in extracellular AK activity)) it was 0.5; in assay [2] (planktonic, cutoff for positive-scoring molecules 3-fold increase, read-out: AK-based Prestwick Library Screening Results, S. aureus (fold increase in extracellular AK activity)) it was 0.5. Also, the fold induction at 50 µM in the assay on E. faecium (planktonic, cutoff for positive-scoring molecules 3-fold increase, read-out: AK-based Prestwick Library Screening Results, E. faecium (fold increase in extracellular AK activity)) worked out at 0.9.

Regarding `C[C@](N)(Cc1ccc(O)c(O)c1)C(=O)O` [Methyldopa (L,−)], the “AK-based Prestwick Library Screening Results: E. cloacae (increase in extracellular AK activity)” value in the assay with E. cloacae (planktonic E. cloacae, 384-well, cutoff for positive-scoring molecules 3-fold increase) is 0.5. Also, in the assay with K. pneumoniae (planktonic K. pneumoniae, 384-well, cutoff for positive-scoring molecules 3-fold increase), the “AK-based Prestwick Library Screening Results: K. pneumoniae (increase in extracellular AK activity)” value came out at 0.6. Besides, the “AK-based Prestwick Library Screening Results: P. aeruginosa (increase in extracellular AK activity)” value in the assay on P. aeruginosa (planktonic P. aeruginosa, 384-well, cutoff for positive-scoring molecules 3-fold increase) was 0.4. The “AK-based Prestwick Library Screening Results: A. baumannii (increase in extracellular AK activity)” value in assay [1] (planktonic A. baumannii, 384-well, cutoff for positive-scoring molecules 3-fold increase) was 0.5. Besides, in the assay on E. coli (planktonic E. coli, 384-well, cutoff for positive-scoring molecules 3-fold increase), the “AK-based Prestwick Library Screening Results: E. coli (increase in extracellular AK activity)” value came out at 0.6. For the same compound, the “AK-based Prestwick Library Screening Results: S. aureus (increase in extracellular AK activity)” value in assay [2] (planktonic S. aureus, 384-well, cutoff for positive-scoring molecules 3-fold increase) is on record as 0.4. Moreover, in the assay on E. faecium (planktonic E. faecium, 384-well, cutoff for positive-scoring molecules 3-fold increase), the “AK-based Prestwick Library Screening Results: E. faecium (increase in extracellular AK activity)” value turned out to be 0.9.

With `CN1[C@@H]2CC[C@H]1C[C@@H](OC(=O)c1c[nH]c3ccccc13)C2` [Tropisetron HCl], the fold induction at 50 µM with E. cloacae (setting [3]) worked out at 1.3; in the assay on K. pneumoniae (setting [4]) it was 0.8; in the assay on P. aeruginosa (setting [5]), 1.1; in assay [1] (setting [6]), 1.3; in the assay with E. coli (setting [7]), 1.1; in assay [2] (setting [8]), 0.9. Further, the fold induction at 50 µM with E. faecium (setting [9]) is 1.

For `CC(C)(CO)[C@@H](O)C(=O)NCCC(=O)O` [calcium salt monohydrate], the fold induction at 50 µM worked out at 1.4 with E. cloacae (setting [3]); 1 in the assay with K. pneumoniae (setting [4]); 1 in the assay on P. aeruginosa (setting [5]); 1.1 in assay [1] (setting [6]); 1.1 in the assay on E. coli (setting [7]); 1.1 in assay [2] (setting [8]). Also, the fold induction at 50 µM in the assay with E. faecium (setting [9]) came out at 1.1.

`COc1ccc2c(c1OC)C(=O)O[C@@H]2[C@H]1c2c(cc3c(c2OC)OCO3)CCN1C` [Noscapine]: the fold induction at 50 µM is 0.6 in the assay with E. cloacae (planktonic E. cloacae, 384-well, cutoff for positive-scoring molecules 3-fold increase, read-out: AK-based Prestwick Library Screening Results: E. cloacae (increase in extracellular AK activity)); 0.5 with K. pneumoniae (planktonic K. pneumoniae, 384-well, cutoff for positive-scoring molecules 3-fold increase, read-out: AK-based Prestwick Library Screening Results: K. pneumoniae (increase in extracellular AK activity)); 0.5 with P. aeruginosa (planktonic P. aeruginosa, 384-well, cutoff for positive-scoring molecules 3-fold increase, read-out: AK-based Prestwick Library Screening Results: P. aeruginosa (increase in extracellular AK activity)); 0.6 in assay [1] (planktonic A. baumannii, 384-well, cutoff for positive-scoring molecules 3-fold increase, read-out: AK-based Prestwick Library Screening Results: A. baumannii (increase in extracellular AK activity)); 0.6 in the assay with E. coli (planktonic E. coli, 384-well, cutoff for positive-scoring molecules 3-fold increase, read-out: AK-based Prestwick Library Screening Results: E. coli (increase in extracellular AK activity)); 0.5 in assay [2] (planktonic S. aureus, 384-well, cutoff for positive-scoring molecules 3-fold increase, read-out: AK-based Prestwick Library Screening Results: S. aureus (increase in extracellular AK activity)). Moreover, the fold induction at 50 µM in the assay with E. faecium (planktonic E. faecium, 384-well, cutoff for positive-scoring molecules 3-fold increase, read-out: AK-based Prestwick Library Screening Results: E. faecium (increase in extracellular AK activity)) is 0.9.

For `C[C@@H]1CCC[C@H](C)N1NC(=O)c1ccc(Cl)c(S(N)(=O)=O)c1` [Clopamide], the fold induction at 50 µM with E. cloacae (planktonic E. cloacae, cutoff for positive-scoring molecules 3-fold increase, read-out: AK-based Prestwick Library Screening Results, E. cloacae (increase in extracellular AK activity)) worked out at 1; in the assay with K. pneumoniae (planktonic K. pneumoniae, cutoff for positive-scoring molecules 3-fold increase, read-out: AK-based Prestwick Library Screening Results, K. pneumoniae (increase in extracellular AK activity)), 0.7; in the assay with P. aeruginosa (planktonic P. aeruginosa, cutoff for positive-scoring molecules 3-fold increase, read-out: AK-based Prestwick Library Screening Results, P. aeruginosa (increase in extracellular AK activity)), 0.8; in assay [1] (planktonic A. baumannii, cutoff for positive-scoring molecules 3-fold increase, read-out: AK-based Prestwick Library Screening Results, A. baumannii (increase in extracellular AK activity)), 0.8; with E. coli (planktonic E. coli, cutoff for positive-scoring molecules 3-fold increase, read-out: AK-based Prestwick Library Screening Results, E. coli (increase in extracellular AK activity)) it was 0.8; in assay [2] (planktonic S. aureus, cutoff for positive-scoring molecules 3-fold increase, read-out: AK-based Prestwick Library Screening Results, S. aureus (increase in extracellular AK activity)), 0.7. Moreover, the fold induction at 50 µM in the assay with E. faecium (planktonic E. faecium, cutoff for positive-scoring molecules 3-fold increase, read-out: AK-based Prestwick Library Screening Results, E. faecium (increase in extracellular AK activity)) was 0.9.
